The assay has as its system HeLa tumor. As to the kind of experiment: therapeutic efficacy in HeLa tumor bearing SCID mice, volume of cancer as a function of time. Type of assay: in vivo. Particulars: FIG. 6. An excerpt:
The inventors determine the therapeutic efficacy of the multi-responsive targeting nano-containers of the present invention using HeLa tumor bearing SCID mice and monitor the volume of cancer as a function of time.

As for `COc1cccc2c1C(=O)c1c(O)c3c(c(O)c1C2=O)C[C@@](O)(C(=O)CO)C[C@@H]3O[C@H]1C[C@H](N)[C@H](O)[C@H](C)O1` [Doxorubicin, doxorubicin], the “volume of the cancer as a function of time” value is recorded as “the volume of the cancer increases with time”.

The values above are taken from patent publication US20160263221A1, “MULTI-RESPONSIVE TARGETING DRUG DELIVERY SYSTEMS FOR CONTROLLED-RELEASE PHARMACEUTICAL FORMULATION” (priority 2013, published 2016).
